According to ChEMBL document CHEMBL5212743, “Selectivity Literature for EUbOPEN Chemogenomics Library wave 3” (2023):
Each block holds one molecule with its values, some of them ahead of it.

Columns and labels:
[1] = biological target: 5'-AMP-activated protein kinase catalytic subunit alpha-1 (Homo sapiens, UniProt Q13131); assay: Selectivity interaction (KinomeScan (DiscoverX)) EUB0000347a PRKAA1; conditions: at 1 µM
[2] = biological target: Cyclin-dependent kinase 5 (Homo sapiens) (UniProt Q00535); assay: Selectivity interaction (KinomeScan (DiscoverX)) EUB0000347a CDK5; conditions: at 1 µM
[3] = biological target: Dual specificity protein kinase CLK4 (Homo sapiens) (UniProt Q9HAZ1); assay: Selectivity interaction (KinomeScan (DiscoverX)) EUB0000347a CLK4; conditions: at 1 µM
[4] = biological target: T1, Mitogen-activated protein kinase kinase kinase 13 (Homo sapiens) (UniProt O43283); assay: Selectivity interaction (KinomeScan (DiscoverX)) EUB0000347a MAP3K13; conditions: at 1 µM
T1 sequence (whole entry): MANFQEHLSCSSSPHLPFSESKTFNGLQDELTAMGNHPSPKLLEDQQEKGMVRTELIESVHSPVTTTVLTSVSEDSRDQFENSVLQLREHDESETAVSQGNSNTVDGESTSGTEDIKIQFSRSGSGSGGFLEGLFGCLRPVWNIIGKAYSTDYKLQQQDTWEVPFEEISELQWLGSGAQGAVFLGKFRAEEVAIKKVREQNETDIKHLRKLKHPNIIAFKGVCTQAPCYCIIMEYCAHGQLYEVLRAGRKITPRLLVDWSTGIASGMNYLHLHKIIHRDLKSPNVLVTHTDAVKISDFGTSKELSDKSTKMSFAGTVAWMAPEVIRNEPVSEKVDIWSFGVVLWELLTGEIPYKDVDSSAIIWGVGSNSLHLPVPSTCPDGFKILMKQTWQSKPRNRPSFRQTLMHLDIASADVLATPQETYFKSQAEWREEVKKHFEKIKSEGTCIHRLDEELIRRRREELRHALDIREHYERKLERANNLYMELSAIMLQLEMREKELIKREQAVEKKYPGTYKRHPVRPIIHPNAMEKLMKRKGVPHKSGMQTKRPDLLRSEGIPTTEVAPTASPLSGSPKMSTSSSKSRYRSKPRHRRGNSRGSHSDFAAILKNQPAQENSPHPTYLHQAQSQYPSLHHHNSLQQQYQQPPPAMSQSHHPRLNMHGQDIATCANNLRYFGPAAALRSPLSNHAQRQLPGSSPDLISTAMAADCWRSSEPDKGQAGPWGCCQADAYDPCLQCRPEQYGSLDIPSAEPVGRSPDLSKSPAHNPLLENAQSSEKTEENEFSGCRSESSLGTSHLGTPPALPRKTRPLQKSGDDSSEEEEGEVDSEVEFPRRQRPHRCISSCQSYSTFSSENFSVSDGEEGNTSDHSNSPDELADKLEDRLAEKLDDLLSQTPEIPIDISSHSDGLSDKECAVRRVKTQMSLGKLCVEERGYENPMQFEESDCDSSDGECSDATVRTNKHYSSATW

[5] = biological target: Dual specificity tyrosine-phosphorylation-regulated kinase 1B (Homo sapiens, UniProt Q9Y463); assay: Selectivity interaction (KinomeScan (DiscoverX)) EUB0000738a DYRK1B; conditions: at 1 µM
[6] = biological target: T2, Phosphatidylinositol 5-phosphate 4-kinase type-2 beta (Homo sapiens) (UniProt P78356); assay: Selectivity interaction (KinomeScan (DiscoverX)) EUB0000738a PIP4K2B; conditions: at 1 µM
T2 sequence (whole entry): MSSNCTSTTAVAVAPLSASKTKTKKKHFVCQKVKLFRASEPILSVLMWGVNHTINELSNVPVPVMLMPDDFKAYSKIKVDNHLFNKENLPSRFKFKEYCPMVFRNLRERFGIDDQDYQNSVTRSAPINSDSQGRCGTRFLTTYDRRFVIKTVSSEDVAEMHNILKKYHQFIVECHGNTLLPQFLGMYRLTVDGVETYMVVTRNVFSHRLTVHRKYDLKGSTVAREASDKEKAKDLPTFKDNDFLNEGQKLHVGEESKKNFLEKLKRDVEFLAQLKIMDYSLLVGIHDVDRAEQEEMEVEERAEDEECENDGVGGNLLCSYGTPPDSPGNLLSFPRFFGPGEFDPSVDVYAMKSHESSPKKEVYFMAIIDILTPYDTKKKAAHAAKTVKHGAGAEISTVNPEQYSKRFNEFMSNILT

[7] = biological target: Kappa-type opioid receptor (Homo sapiens, UniProt P41145); assay: Selectivity interaction (SafetyScreen44™ (Eurofins, ion channels, GPCRs, hydrolases, and other enzymes)) EUB0000282b OPRK1; conditions: at 10 µM
[8] = biological target: Leukocyte tyrosine kinase receptor (Homo sapiens, UniProt P29376); assay: Selectivity interaction (KinomeScan (DiscoverX)) EUB0000250b LTK; conditions: at 1 µM
[9] = biological target: Epidermal growth factor receptor (Homo sapiens, UniProt P00533); assay: Selectivity interaction (KinomeScan (DiscoverX)) EUB0000250b EGFR; conditions: at 1 µM
[10] = biological target: Ephrin type-A receptor 5 (Homo sapiens) (UniProt P54756); assay: Selectivity interaction (KinomeScan (Eurofins)) EUB0000250b EPHA5; conditions: at 1 µM
[11] = biological target: Ephrin type-B receptor 3 (Homo sapiens) (UniProt P54753); assay: Selectivity interaction (KinomeScan (Eurofins)) EUB0000250b EPHB3; conditions: at 1 µM
[12] = biological target: T3, Ephrin type-B receptor 6 (Homo sapiens) (UniProt O15197); assay: Selectivity interaction (KinomeScan (Eurofins)) EUB0000250b EPHB6; conditions: at 1 µM
T3 sequence (whole entry): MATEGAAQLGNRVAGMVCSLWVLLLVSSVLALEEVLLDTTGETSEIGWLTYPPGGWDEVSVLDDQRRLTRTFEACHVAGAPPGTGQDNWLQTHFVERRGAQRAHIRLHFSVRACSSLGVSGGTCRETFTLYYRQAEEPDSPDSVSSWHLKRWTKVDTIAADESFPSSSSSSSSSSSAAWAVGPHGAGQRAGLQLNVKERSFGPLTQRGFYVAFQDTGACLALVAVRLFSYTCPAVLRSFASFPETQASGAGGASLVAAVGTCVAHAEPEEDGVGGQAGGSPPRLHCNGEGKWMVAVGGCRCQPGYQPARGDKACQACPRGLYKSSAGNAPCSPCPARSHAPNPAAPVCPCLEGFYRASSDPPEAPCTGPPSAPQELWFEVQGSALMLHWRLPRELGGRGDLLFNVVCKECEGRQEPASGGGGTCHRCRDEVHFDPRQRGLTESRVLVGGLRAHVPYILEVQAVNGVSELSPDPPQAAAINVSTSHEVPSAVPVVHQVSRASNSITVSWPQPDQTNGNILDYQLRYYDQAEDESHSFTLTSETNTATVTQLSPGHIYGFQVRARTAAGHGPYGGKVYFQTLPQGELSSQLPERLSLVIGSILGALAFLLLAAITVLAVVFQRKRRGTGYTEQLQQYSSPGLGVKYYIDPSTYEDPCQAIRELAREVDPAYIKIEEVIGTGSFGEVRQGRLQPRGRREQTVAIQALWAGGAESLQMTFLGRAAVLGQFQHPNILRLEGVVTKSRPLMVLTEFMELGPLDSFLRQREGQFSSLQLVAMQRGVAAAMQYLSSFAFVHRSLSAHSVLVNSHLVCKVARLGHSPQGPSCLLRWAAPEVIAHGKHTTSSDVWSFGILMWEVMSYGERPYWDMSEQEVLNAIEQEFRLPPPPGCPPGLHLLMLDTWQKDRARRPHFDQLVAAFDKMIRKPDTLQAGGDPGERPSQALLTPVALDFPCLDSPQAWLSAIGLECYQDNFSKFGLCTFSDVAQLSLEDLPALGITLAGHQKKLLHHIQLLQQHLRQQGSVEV

[13] = biological target: Tyrosine-protein kinase Fer (Homo sapiens, UniProt P16591); assay: Selectivity interaction (KinomeScan (Eurofins)) EUB0000250b FER; conditions: at 1 µM
[14] = biological target: Sodium-dependent dopamine transporter (Homo sapiens, UniProt Q01959); assay: Selectivity interaction (GPCR panel (PDSP screen)) EUB0000294b SLC6A3; conditions: at 10 µM
[15] = biological target: Aurora kinase A (Homo sapiens) (UniProt O14965); assay: Selectivity interaction (KinomeScan (DiscoverX)) EUB0000294b STK6; conditions: at 1 µM
[16] = biological target: T4, Dual specificity mitogen-activated protein kinase kinase 5 (Homo sapiens) (UniProt Q13163); assay: Selectivity interaction (KinomeScan (DiscoverX)) EUB0000294b MAP2K5; conditions: at 1 µM
T4 sequence (whole entry): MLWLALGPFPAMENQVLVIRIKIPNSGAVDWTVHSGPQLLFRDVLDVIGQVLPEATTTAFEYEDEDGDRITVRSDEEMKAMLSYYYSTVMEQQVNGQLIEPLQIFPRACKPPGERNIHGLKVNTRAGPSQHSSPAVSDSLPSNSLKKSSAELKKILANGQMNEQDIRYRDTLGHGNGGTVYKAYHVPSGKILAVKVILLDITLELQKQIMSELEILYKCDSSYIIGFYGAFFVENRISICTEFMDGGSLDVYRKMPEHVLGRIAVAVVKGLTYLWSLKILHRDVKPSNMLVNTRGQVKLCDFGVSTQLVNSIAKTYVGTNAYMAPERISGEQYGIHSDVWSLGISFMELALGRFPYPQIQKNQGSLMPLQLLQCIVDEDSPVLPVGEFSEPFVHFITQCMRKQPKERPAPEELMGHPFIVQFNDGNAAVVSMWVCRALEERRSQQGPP

[17] = biological target: Nischarin (Homo sapiens) (UniProt Q9Y2I1); assay: Selectivity interaction (MDS Pharma Service panel (GPCR, ion channels, receptors, and other enzymes, radioligand binding assays)) EUB0000294b NISCH; conditions: at 10 µM
[18] = biological target: NT-3 growth factor receptor (Homo sapiens, UniProt Q16288); assay: Selectivity interaction (KinomeScan (DiscoverX)) EUB0000294b NTRK3; conditions: at 1 µM
[19] = biological target: T5, Serine/threonine-protein kinase LATS1 (Homo sapiens) (UniProt O95835); assay: Selectivity interaction (KinomeScan (DiscoverX)) EUB0000294b LATS1; conditions: at 1 µM
T5 sequence (whole entry): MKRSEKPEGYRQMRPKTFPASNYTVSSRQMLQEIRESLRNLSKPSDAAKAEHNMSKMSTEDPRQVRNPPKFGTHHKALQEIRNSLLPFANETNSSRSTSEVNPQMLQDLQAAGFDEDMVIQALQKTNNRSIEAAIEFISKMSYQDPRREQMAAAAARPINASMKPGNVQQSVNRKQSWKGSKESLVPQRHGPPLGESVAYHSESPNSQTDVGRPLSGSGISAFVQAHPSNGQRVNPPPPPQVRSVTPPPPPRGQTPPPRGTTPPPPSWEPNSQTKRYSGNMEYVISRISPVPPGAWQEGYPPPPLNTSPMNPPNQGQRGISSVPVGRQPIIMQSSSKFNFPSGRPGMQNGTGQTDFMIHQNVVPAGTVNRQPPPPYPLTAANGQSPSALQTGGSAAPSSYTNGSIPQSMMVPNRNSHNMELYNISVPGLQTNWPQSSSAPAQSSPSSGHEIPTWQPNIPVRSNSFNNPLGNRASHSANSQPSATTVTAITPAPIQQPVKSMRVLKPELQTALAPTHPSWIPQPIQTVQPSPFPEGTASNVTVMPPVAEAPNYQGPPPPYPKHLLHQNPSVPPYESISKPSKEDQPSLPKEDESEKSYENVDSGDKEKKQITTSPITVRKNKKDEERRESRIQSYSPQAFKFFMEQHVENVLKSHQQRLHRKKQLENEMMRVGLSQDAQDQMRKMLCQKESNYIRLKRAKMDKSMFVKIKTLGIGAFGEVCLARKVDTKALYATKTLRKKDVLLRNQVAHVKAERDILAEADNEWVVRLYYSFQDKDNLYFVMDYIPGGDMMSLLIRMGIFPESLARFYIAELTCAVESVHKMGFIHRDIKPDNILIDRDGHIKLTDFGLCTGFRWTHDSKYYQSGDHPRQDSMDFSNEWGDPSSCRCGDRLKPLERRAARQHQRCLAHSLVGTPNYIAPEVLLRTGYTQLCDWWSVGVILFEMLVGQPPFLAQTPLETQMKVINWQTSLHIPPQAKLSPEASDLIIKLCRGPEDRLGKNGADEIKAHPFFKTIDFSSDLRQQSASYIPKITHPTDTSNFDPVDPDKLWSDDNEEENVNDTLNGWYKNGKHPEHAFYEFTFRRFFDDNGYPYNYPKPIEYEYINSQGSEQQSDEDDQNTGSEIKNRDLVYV

[20] = biological target: Cyclin-dependent kinase-like 2 (Homo sapiens) (UniProt Q92772); assay: Selectivity interaction (KinomeScan (DiscoverX)) EUB0000240b CDKL2; conditions: at 1 µM

Sequence of Ephrin type-B receptor 3 (Homo sapiens) (P54753 whole entry): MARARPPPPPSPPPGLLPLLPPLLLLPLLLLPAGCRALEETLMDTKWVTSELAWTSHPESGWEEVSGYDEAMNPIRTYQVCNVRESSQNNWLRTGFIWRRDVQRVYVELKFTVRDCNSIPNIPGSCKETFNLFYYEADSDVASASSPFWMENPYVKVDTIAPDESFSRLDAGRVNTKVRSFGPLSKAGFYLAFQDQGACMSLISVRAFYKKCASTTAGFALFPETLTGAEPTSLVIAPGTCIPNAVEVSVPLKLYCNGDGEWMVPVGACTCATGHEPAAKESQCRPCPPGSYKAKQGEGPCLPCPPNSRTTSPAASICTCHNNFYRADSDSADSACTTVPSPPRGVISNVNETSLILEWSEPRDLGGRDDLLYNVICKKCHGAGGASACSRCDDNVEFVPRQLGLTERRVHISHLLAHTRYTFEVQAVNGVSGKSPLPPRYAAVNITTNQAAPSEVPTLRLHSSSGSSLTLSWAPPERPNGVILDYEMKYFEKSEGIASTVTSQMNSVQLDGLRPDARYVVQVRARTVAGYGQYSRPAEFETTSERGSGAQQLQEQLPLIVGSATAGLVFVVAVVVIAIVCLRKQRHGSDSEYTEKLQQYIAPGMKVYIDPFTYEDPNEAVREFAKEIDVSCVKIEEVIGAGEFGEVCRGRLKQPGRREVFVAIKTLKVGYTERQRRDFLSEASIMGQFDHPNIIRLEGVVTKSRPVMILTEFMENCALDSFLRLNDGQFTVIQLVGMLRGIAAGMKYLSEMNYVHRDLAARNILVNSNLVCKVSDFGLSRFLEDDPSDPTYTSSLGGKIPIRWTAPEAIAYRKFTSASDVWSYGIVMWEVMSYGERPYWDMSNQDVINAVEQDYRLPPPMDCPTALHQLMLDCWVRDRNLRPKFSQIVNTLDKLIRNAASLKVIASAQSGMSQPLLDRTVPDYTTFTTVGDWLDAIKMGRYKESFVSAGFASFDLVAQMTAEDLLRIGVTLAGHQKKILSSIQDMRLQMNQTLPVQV
Sequence of 5'-AMP-activated protein kinase catalytic subunit alpha-1 (Q13131 whole entry, looked up): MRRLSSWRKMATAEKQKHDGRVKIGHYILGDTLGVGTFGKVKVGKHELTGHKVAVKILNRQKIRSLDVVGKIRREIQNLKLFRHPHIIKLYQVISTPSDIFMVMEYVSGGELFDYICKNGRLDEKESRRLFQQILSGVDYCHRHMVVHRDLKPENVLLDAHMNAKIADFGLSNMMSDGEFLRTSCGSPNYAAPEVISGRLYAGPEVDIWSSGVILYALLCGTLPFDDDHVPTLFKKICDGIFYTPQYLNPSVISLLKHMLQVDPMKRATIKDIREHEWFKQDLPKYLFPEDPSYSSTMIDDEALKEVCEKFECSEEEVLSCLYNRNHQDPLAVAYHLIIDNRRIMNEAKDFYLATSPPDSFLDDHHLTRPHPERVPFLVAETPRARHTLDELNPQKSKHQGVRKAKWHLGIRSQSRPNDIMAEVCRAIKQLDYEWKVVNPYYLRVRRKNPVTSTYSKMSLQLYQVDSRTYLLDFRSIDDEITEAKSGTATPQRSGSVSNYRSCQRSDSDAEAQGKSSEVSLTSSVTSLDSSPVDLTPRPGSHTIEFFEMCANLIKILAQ
Sequence of Tyrosine-protein kinase Fer (P16591 whole entry, looked up): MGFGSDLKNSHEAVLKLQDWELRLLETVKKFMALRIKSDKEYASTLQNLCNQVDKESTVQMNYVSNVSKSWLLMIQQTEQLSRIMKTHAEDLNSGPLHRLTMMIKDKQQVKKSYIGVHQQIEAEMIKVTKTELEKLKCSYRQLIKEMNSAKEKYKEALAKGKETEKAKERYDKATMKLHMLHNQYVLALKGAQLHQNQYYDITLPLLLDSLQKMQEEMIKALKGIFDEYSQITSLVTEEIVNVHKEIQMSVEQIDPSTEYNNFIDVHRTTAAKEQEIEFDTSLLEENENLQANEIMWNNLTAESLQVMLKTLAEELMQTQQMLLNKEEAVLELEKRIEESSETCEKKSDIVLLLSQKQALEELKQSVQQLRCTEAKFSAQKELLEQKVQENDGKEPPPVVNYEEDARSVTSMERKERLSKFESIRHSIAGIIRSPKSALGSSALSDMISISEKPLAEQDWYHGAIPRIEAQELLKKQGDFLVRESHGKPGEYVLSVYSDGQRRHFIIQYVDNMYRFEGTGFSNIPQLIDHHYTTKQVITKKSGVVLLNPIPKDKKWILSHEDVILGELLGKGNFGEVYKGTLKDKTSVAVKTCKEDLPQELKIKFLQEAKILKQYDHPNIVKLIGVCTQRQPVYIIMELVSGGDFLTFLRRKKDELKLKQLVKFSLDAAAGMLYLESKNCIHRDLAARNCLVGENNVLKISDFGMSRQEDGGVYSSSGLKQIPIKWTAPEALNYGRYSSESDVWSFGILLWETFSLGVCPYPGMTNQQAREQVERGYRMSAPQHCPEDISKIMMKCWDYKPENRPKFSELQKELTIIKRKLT
Sequence of Nischarin (Homo sapiens) (Q9Y2I1 whole entry): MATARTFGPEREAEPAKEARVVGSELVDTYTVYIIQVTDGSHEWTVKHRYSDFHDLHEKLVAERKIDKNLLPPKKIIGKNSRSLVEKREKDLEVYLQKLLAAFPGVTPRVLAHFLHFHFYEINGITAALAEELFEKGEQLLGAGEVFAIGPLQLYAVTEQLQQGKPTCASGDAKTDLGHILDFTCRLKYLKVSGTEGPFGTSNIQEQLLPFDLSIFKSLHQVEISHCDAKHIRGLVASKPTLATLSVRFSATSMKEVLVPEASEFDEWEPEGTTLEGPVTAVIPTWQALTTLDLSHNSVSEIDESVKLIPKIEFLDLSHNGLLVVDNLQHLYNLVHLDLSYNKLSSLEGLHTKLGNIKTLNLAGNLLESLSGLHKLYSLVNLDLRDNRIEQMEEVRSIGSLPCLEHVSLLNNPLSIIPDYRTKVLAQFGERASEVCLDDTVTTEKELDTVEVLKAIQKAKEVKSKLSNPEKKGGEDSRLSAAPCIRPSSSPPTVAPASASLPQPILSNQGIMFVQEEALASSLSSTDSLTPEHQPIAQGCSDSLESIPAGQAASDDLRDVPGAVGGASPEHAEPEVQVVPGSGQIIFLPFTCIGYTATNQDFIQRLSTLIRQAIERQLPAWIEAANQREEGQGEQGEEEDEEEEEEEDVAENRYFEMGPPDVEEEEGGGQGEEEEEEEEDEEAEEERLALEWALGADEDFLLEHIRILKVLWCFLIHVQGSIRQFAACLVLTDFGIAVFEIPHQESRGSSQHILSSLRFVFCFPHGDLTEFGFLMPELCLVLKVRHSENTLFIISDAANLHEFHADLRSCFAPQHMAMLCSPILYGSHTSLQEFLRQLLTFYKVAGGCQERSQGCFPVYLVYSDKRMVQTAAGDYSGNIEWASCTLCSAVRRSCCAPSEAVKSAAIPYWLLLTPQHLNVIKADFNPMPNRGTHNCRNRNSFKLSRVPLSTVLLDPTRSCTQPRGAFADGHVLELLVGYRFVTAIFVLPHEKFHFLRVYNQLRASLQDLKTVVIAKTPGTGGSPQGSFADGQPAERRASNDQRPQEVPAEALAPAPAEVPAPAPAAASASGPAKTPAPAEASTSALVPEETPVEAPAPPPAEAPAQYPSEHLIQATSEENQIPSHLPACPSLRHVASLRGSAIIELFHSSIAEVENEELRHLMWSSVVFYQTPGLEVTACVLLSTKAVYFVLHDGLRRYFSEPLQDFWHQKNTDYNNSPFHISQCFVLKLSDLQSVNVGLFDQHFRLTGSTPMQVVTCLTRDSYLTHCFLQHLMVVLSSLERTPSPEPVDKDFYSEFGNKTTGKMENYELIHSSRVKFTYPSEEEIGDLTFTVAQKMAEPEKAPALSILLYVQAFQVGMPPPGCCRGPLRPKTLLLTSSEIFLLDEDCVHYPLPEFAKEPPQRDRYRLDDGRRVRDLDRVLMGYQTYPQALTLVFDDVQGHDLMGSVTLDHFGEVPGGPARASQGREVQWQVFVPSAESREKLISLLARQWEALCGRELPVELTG
Sequence of Epidermal growth factor receptor (P00533 whole entry): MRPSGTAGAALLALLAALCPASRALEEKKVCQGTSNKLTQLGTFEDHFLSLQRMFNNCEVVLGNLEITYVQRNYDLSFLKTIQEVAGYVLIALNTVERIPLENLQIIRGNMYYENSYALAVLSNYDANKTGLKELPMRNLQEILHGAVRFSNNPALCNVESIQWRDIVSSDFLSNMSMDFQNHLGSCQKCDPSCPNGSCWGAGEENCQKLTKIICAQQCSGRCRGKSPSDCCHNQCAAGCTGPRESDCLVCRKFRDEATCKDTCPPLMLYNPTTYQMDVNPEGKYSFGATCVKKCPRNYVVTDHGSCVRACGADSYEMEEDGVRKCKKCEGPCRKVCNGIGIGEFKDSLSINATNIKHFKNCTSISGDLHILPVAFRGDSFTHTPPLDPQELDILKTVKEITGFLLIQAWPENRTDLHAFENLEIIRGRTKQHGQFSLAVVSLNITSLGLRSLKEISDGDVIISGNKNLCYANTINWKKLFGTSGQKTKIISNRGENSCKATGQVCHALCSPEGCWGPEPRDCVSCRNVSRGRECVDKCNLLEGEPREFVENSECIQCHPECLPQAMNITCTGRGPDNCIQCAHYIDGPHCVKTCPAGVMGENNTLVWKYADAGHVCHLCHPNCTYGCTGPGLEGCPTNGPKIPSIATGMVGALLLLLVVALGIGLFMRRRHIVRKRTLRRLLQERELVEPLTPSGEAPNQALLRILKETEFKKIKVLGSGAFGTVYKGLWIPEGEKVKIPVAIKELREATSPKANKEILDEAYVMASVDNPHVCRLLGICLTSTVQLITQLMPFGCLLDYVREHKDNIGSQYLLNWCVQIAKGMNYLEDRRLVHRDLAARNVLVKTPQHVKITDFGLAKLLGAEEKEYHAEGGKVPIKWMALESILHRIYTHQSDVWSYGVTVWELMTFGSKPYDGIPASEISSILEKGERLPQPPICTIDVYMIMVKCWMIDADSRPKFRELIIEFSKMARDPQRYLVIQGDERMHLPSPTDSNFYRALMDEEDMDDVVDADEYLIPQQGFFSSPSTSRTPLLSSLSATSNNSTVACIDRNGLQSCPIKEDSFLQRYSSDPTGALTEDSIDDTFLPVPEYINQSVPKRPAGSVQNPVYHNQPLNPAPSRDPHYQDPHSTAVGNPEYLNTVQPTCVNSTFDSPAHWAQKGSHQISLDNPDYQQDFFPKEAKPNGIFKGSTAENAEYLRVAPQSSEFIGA

- % of control [1]: 39%
- % of control [2]: 0%
- % of control [3]: 0%
- % of control [4]: 0%
SMILES: O=C(NCc1ncc(C(F)(F)F)cc1Cl)c1ccc2c(c1)C1(CCS(=O)(=O)CC1)[C@H](C1CC1)N2S(=O)(=O)c1ccc(F)cc1

- % of inhibition [14]: 77%
- % of control [15]: 43%
- % of control [16]: 16%
- % of inhibition [17]: 19%
- % of control [18]: 32%
- % of control [19]: 48%
SMILES: CCC(=O)N[C@H]1CC[C@@H](C(=O)N(C)c2ccc(-c3nc4ccccc4o3)cc2)C1

- % of control [20]: 33%
SMILES: O=C(Nc1cnc(Oc2ccc(F)cc2)nc1)N1CCc2ncccc2[C@@H]1c1ccc(F)cc1

The remaining lines, values behind:

SMILES: CCC(=O)N[C@@H]1CC[C@H](C(=O)N(C)c2ccc(-c3nc4ccccc4o3)cc2)C1
- % of control [5]: 36%
- % of control [6]: 45%

SMILES: O=C(NCc1ccc(F)cc1)C1CCN(S(=O)(=O)c2cc(Cl)cc(Cl)c2)CC1
- % of control [7]: 19%

SMILES: CN1CCN(c2cnc3c(C4CCN(C(=O)c5ccc(OC(F)(F)F)cc5N)CC4)ncnc3c2)CC1
- % of control [8]: 49%
- % of control [9]: 38%
- % of control [10]: 57%
- % of control [11]: 42%
- % of control [12]: 18%
- % of control [13]: 38%
